Measurements: patent US6525001B1, “Substituted pyrimidine and pyridine herbicides” (Mid-American Commercialization Corporation, priority 1997, dated 2003)

Legend:
Type in all cases: in vivo
[1] = tested on: purple nutsedge (Cyperus rotundus); test: Test E pre-/postemergence/post directed; parameters: key: 0 is no injury; 100 is complete control
Excerpt: (§1) Seeds, tubers, or plant parts of alexandergrass (Brachiaria plantaginea), annual bluegrass (Poa annua), arrowleaf sida (Sida rhombifolia), barnyardgrass (Echinochloa crus-galli), bermudagrass (Cynodon dactylon), citrus (Citrus sinensis), common chickweed (Stellaria media), common purslane (Portulaca oleracea), common ragweed (Ambrosia elatior), common groundsel (Senecio vulgaris), dallisgrass (Paspalum dilatatum), goosegrass (Eleusine indica), green foxtail (Setaria viridis), guineagrass (Panicum maximum), itchgrass (Rottboellia exaltata), johnson grass (Sorghum halepense), kochia (Kochia scoparia), large crabgrass (Digitaria sanguinalis), leafy spurge (Euphorbia esula), pitted morningglory (Ipomoea lacunosa), purple nutsedge (Cyperus rotundus), quackgrass (Agropyron repens), Russian thistle (Salsola kali), sandbur (Cenchrus echinatus), sourgrass (Trichachne insularis), Spanishneedles (Bidens bipinnata), sugarcane (Saccharum officinarum), surinam grass (Brachiaria decumbens) and tall mallow (Malva sylvestris) were planted into greenhouse pots of flats containing greenhouse planting medium. Plant species were grown grown in separate pots or individual compartments. Preemergence applications were made within one day of planting the seed or plant part. Postemergence applications were applied when the plants were in the two to four leaf stage (three to twenty cm).
(§2) Test chemicals were formulated in a non-phytotoxic solvent mixture which included a surfactant and applied preemergence to the soil surface, postemergence to the plants or as a post directed spray to plants and soil at the base of the target species. Untreated control plants and treated plants were placed in the greenhouse and visually evaluated for injury 13 to 21 days after herbicide application. Plant response ratings, summarized in Table E, are based on a 0 to 100 scale where 0 is no injury and 100 is complete control. A dash (−) response means no test result.

[2] = tested on: sandbur (Cenchrus echinatus); test: Test E pre-/postemergence/post directed; parameters: key: 0 is no injury; 100 is complete control
Excerpt: as §1, §2

[3] = tested on: alexandergrass (Brachiaria plantaginea); test: Test E pre-/postemergence/post directed
Outline: (§3)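 Injury was scored visually on a 0 to 100 scale (100 = complete control) 13 to 21 days after treatment of greenhouse-grown plants. Test chemicals, in a surfactant-containing non-phytotoxic solvent, were sprayed onto soil within a day of planting, onto plants at the two to four leaf stage, or directed at the base of the plants.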

[4] = tested on: pitted morningglory (Ipomoea lacunosa); test: Test E pre-/postemergence/post directed
Outline: as §3

[5] = tested on: common groundsel (Senecio vulgaris); test: Test E pre-/postemergence/post directed
Outline: as §3

[6] = tested on: johnson grass (Sorghum halepense); test: Test E pre-/postemergence/post directed
Outline: as §3

[7] = tested on: hairy beggarticks (Bidens pilosa); test: Test C; parameters: key: 0 was no effect; 100 was complete control; settings: PREEMERGENCE
[8] = tested on: field bindweed (Convolvulus arvensis); test: Test C; parameters: key: 0 was no effect; 100 was complete control; settings: PREEMERGENCE
[9] = tested on: surinam grass (Brachiaria decumbens); test: Test C; parameters: key: 0 was no effect; 100 was complete control; settings: PREEMERGENCE
corn (Zea mays) = test: Test C; parameters: key: 0 was no effect; 100 was complete control; settings: PREEMERGENCE
[10] = tested on: ivyleaf morningglory (Ipomoea hederacea); test: Test C; settings: PREEMERGENCE
[11] = tested on: surinam grass (Brachiaria decumbens); test: Test E pre-/postemergence/post directed; settings: PREEMERGENCE
Outline: as §3

[12] = tested on: wild poinsettia (Euphorbia heterophylla); test: Test C; parameters: key: 0 was no effect; 100 was complete control; settings: PREEMERGENCE

In the case of Cc1cnc(-n2cnc(C(F)(F)F)c2)nc1Cc1cccc(C(F)(F)F)c1 [Compound 44], the “Plant response rating, Purple nutsedge” value ([1]; POSTEMERGENCE, Rate 125 g/ha) was 0, the “Plant response rating, Purple nutsedge” value ([1]; POSTEMERGENCE, Rate 250 g/ha) was 0 and the “Plant response rating, Purple nutsedge” value ([1]; PREEMERGENCE, Rate 32 g/ha) was 0. The “Plant response rating, Purple nutsedge” value ([1]; PREEMERGENCE, Rate 64 g/ha) was 0, the “Plant response rating, Purple nutsedge” value ([1]; PREEMERGENCE, Rate 125 g/ha) was 0 and the “Plant response rating, Purple nutsedge” value ([1]; PREEMERGENCE, Rate 250 g/ha) was 0. The “Plant response rating, Sandbur” value ([2]; POSTEMERGENCE, Rate 125 g/ha) was 0, the “Plant response rating, Sandbur” value ([2]; POSTEMERGENCE, Rate 250 g/ha) was 0 and the “Plant response rating, Sandbur” value ([2]; PREEMERGENCE, Rate 32 g/ha) was 0. For the same molecule, the “Plant response rating, Alexandergrass” value ([3]; POSTEMERGENCE, Rate 125 g/ha) was 10, the “Plant response rating, Alexandergrass” value ([3]; POSTEMERGENCE, Rate 250 g/ha) was 10 and the “Plant response rating, Alexandergrass” value ([3]; PREEMERGENCE, Rate 64 g/ha) was 40. For the same molecule, the “Plant response rating, Alexandergrass” value ([3]; PREEMERGENCE, Rate 125 g/ha) was 40, the “Plant response rating, Alexandergrass” value ([3]; PREEMERGENCE, Rate 250 g/ha) was 50 and the “Plant response rating, P. morninglory” value ([4]; POSTEMERGENCE, Rate 125 g/ha) was 30. The “Plant response rating, P. morninglory” value ([4]; POSTEMERGENCE, Rate 250 g/ha) was 40, the “Plant response rating, P. morninglory” value ([4]; PREEMERGENCE, Rate 32 g/ha) was 20 and the “Plant response rating, P. morninglory” value ([4]; PREEMERGENCE, Rate 64 g/ha) was 30. The “Plant response rating, P. morninglory” value ([4]; PREEMERGENCE, Rate 125 g/ha) was 50, the “Plant response rating, P. morninglory” value ([4]; PREEMERGENCE, Rate 250 g/ha) was 50 and the “Plant response rating, Com. groundsel” value ([5]; POSTEMERGENCE, Rate 125 g/ha) was 10. The “Plant response rating, Com. groundsel” value ([5]; POSTEMERGENCE, Rate 250 g/ha) was 10, the “Plant response rating, Com. groundsel” value ([5]; PREEMERGENCE, Rate 32 g/ha) was 98 and the “Plant response rating, Johnsongrass” value ([6]; POSTEMERGENCE, Rate 125 g/ha) was 5. The “Plant response rating, Johnsongrass” value ([6]; POSTEMERGENCE, Rate 250 g/ha) was 10, the “Plant response rating, Johnsongrass” value ([6]; PREEMERGENCE, Rate 32 g/ha) was 30 and the “Plant response rating, Johnsongrass” value ([6]; PREEMERGENCE, Rate 125 g/ha) was 60. The “Plant response rating, Johnsongrass” value ([6]; PREEMERGENCE, Rate 250 g/ha) was 75.

In the case of CCc1cnc(-n2ccc(C(F)(F)F)n2)nc1Cc1cccc(C(F)(F)F)c1 [Compound 46], the “Plant response rating, H. beggarticks” value ([7]; Rate 35 g/ha) was 0, the “Plant response rating, H. beggarticks” value ([7]; Rate 70 g/ha) was 100 and the “Plant response rating, H. beggarticks” value ([7]; Rate 140 g/ha) was 100. The “Plant response rating, Field bindweed” value ([8]; Rate 35 g/ha) was 10, the “Plant response rating, Field bindweed” value ([8]; Rate 70 g/ha) was 70 and the “Plant response rating, Field bindweed” value ([8]; Rate 140 g/ha) was 100. The “Plant response rating, Surinam grass” value ([9]; Rate 35 g/ha) was 0, the “Plant response rating, Surinam grass” value ([9]; Rate 70 g/ha) was 5 and the “Plant response rating, Surinam grass” value ([9]; Rate 140 g/ha) was 25. For the same molecule, the “Plant response rating, Purple nutsedge” value ([1]; PREEMERGENCE, Rate 32 g/ha) was 0, the “Plant response rating, Purple nutsedge” value ([1]; PREEMERGENCE, Rate 64 g/ha) was 0 and the “Plant response rating, Purple nutsedge” value ([1]; PREEMERGENCE, Rate 125 g/ha) was 0. For the same molecule, the “Plant response rating, Purple nutsedge” value ([1]; PREEMERGENCE, Rate 250 g/ha) was 0, the “Plant response rating, Sandbur” value ([2]; PREEMERGENCE, Rate 32 g/ha) was 0 and the “Plant response rating, Corn” value (corn (Zea mays); Rate 35 g/ha) was 0. The “Plant response rating, Corn” value (corn (Zea mays); Rate 70 g/ha) was 0, the “Plant response rating, Corn” value (corn (Zea mays); Rate 140 g/ha) was 5 and the “Plant response rating, I. morningglory” value ([10]; Rate 35 g/ha) was 45. The “Plant response rating, I. morningglory” value ([10]; Rate 70 g/ha) was 50, the “Plant response rating, I. morningglory” value ([10]; Rate 140 g/ha) was 50 and the “Plant response rating, Surinam grass” value ([11]; Rate 125 g/ha) was 40. The “Plant response rating, Surinam grass” value ([11]; Rate 250 g/ha) was 55, the “Plant response rating, Alexandergrass” value ([3]; PREEMERGENCE, Rate 125 g/ha) was 60 and the “Plant response rating, Alexandergrass” value ([3]; PREEMERGENCE, Rate 250 g/ha) was 60. For the same molecule, the “Plant response rating, P. morninglory” value ([4]; PREEMERGENCE, Rate 32 g/ha) was 65, the “Plant response rating, P. morninglory” value ([4]; PREEMERGENCE, Rate 64 g/ha) was 65 and the “Plant response rating, P. morninglory” value ([4]; PREEMERGENCE, Rate 125 g/ha) was 65. For the same molecule, the “Plant response rating, P. morninglory” value ([4]; PREEMERGENCE, Rate 250 g/ha) was 65, the “Plant response rating, Wild poinsettia” value ([12]; Rate 35 g/ha) was 0 and the “Plant response rating, Wild poinsettia” value ([12]; Rate 70 g/ha) was 15. The “Plant response rating, Wild poinsettia” value ([12]; Rate 140 g/ha) was 20.
